The values below are quoted from earlier work in patent US20260174880A1, “ELECTROPHILIC REACTIVE LINKERS FOR LABELING OF POLYPEPTIDES AND METHODS OF USE THEREOF” (The Brigham and Women's Hospital, Inc., priority 2023, published 2026).

Where two headings read alike, the source gives them in different places. A value given as a limit tells only on which side of the number the result lay.

Some targets named below: MEK1 (Homo sapiens, UniProt Q02750); MEK2 (Homo sapiens, UniProt P36507); p38α MAPK (Homo sapiens, UniProt Q16539).
Another data set concerns the target AKT1 (Homo sapiens, UniProt P31749). As to conditions: the 24th table, the 25th table.
The subject of a further data set is NF- B Pathway. The settings on record: at 5 μM.
For a further data set, the target named is T1, Recombinant PKC (Homo sapiens, UniProt Q05513).
T1 sequence (Q05513 1-592): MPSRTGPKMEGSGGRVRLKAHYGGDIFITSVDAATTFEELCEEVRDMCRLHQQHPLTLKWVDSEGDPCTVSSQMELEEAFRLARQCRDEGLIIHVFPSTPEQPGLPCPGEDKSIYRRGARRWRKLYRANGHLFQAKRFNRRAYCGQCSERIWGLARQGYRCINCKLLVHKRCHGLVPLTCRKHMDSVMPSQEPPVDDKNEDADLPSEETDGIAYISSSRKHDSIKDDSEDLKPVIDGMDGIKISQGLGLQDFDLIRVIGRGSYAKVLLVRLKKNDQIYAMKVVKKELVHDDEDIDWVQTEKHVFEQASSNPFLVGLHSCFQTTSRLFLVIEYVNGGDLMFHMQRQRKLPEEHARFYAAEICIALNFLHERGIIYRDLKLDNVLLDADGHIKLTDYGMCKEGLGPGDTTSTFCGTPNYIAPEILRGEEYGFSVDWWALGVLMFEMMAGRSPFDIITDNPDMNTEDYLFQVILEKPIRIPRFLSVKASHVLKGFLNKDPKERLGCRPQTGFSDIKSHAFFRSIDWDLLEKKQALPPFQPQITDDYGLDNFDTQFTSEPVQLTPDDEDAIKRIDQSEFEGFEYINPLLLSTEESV
As to conditions: for % … 62.5 μM (cell…): at 62.5 μM.

Data set [1] has as its target T2, PDK1 (Homo sapiens, UniProt O15530).
T2 sequence (O15530 1-556): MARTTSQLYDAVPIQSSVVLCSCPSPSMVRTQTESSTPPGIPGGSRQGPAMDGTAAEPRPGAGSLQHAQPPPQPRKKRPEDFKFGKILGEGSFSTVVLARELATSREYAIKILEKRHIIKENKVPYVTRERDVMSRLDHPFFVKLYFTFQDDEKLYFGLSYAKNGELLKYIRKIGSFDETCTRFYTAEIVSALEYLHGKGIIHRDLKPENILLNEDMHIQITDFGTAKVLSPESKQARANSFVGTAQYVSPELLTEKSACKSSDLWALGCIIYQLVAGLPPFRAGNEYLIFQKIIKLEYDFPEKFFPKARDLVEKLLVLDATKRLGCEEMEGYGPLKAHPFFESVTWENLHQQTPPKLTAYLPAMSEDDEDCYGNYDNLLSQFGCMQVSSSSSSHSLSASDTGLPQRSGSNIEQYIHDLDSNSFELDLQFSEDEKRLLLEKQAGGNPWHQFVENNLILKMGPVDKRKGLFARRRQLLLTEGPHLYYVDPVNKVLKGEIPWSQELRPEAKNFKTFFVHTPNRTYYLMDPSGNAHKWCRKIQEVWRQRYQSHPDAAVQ
The settings on record: for T…: the 35th table c7; for …G: the 35th table c8.

Data set [2] deals with T2, PDK1. The settings on record: the 35th table; read-out: AC….
The test system of data set [3] is Molt-4 (T cell acute lymphoblastic leukemia) xenografts. As to conditions: SCID mice.
The next data set relates to MERS-COV. As to conditions: in vitro.
The next data set deals with Akt. The settings on record: the 26th table.
Test in data set [4]: not given
This is another data set of the same source.

In a further data set the target is T3, Aurora A (Homo sapiens, UniProt O14965).
T3 sequence (O14965 1-403): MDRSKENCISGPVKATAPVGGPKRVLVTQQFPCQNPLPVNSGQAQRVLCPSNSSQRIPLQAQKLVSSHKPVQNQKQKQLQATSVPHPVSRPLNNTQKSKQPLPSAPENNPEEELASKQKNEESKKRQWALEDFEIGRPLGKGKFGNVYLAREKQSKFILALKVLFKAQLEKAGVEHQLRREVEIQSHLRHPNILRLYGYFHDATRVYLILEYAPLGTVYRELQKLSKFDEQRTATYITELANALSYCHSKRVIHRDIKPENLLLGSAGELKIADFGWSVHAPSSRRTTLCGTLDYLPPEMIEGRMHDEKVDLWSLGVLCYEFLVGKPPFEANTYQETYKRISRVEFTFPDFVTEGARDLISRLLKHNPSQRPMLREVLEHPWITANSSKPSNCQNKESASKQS
As to conditions: the 30th table.

The next data set has as its system other kinases. As to conditions: at 1000 nM EAI045.
In data set [5] the test system is breast carcinoma, prostate carcinoma, colon carcinoma and pancreatic carcinoma xenografts. As to conditions: in vivo.
Data set [6] concerns NF-κB dependent transcription.
Data set [7] addresses T2, PDK1.

AKT1, sequence (P31749 whole entry): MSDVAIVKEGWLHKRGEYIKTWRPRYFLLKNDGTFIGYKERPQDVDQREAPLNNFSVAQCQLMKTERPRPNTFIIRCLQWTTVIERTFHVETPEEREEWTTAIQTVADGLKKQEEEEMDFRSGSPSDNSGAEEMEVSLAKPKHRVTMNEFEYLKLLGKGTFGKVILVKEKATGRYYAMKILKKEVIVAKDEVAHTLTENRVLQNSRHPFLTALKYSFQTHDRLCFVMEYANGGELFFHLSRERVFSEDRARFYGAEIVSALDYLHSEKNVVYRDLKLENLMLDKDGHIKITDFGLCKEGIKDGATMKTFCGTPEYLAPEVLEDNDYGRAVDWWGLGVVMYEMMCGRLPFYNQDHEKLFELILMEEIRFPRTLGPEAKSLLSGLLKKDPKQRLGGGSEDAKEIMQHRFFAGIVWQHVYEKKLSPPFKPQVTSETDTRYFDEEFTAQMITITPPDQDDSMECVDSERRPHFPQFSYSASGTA
MEK1, sequence (Q02750 whole entry): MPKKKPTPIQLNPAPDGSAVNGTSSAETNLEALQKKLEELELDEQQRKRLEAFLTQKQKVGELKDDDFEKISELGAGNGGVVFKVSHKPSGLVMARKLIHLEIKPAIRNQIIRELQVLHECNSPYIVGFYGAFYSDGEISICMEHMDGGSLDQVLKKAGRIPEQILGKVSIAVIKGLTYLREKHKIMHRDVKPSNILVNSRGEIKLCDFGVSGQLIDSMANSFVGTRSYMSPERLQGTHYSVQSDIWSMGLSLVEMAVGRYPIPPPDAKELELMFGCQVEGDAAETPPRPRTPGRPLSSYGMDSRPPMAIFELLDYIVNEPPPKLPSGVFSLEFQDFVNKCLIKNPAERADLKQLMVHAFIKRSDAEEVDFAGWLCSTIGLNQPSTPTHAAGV
MEK2, sequence (P36507 whole entry): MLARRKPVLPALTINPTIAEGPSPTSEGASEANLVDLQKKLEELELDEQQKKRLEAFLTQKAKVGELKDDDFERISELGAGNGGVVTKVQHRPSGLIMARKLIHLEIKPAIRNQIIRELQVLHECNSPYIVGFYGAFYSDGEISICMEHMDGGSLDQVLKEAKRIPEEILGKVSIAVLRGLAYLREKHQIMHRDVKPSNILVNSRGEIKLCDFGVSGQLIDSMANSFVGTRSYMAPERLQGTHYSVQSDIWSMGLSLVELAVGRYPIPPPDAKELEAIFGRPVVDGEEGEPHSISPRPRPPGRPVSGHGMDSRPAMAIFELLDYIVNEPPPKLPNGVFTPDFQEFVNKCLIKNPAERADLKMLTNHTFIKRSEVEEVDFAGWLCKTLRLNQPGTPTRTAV
p38α MAPK, sequence (Q16539 whole entry): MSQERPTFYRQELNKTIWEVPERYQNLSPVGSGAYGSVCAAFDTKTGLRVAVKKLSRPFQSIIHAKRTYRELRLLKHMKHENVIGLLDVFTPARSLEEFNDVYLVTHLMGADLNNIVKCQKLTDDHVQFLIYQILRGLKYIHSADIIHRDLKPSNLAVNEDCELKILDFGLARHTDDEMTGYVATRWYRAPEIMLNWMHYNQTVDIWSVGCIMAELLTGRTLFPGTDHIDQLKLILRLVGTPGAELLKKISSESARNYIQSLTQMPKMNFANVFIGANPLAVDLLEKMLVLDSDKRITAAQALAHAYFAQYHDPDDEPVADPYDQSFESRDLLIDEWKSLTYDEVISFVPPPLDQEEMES

Broadly, the IC50 is the concentration that inhibits the measured activity by half. With `CC(C)(C)c1ccc(-n2c(-c3ccncc3)nc3cccnc32)cc1` [3a], the IC50 at AKT1 was more than 300 µM.

`Nc1ncccc1-c1nc2cccnc2n1-c1cccc(CNC(=O)c2ccccc2)c1` [8g]: on AKT1, the concentration for half-maximal inhibition (IC50) was 13 µM.

As for `CC(C)(C)C1=NN(c2cccc(Cl)c2)C(c2ccc(O)cc2)C1` (centres unmarked) [1h], in the data set with NF- B Pathway, the “% … 5 μM (NF…, U… cells)” value was 64.6%. For the same molecule, at Recombinant PKC, the IC50 was 3.2 µM and the “% … 62.5 μM (cell…)” value is 96.8%. On to `COc1ccccc1Cn1c(-c2cccnc2N)nc2cccnc21` [3c], for which the IC50 on AKT1 is 38 µM.

With `O=C(O)/C=C(/CCc1ccc(Cl)c(Cl)c1)c1ccccc1` [7Z], the “…H…” value was -3.71 kcal/mol at PDK1 [1] (the 35th table c6) and 56.6% at PDK1 [1] (the 35th table c9). Besides, at PDK1 [1], the “T…” value is listed as 2.80 kcal/mol. Besides, the “…G” value at PDK1 [1] is -6.56 kcal/mol. Further, the EC50 at PDK1 [2] is 2.8 µM. What is called pIC50 is −log10 of the IC50, conventionally taken in molar units. Turning to `Cn1cnc2c(F)c(Nc3ccc(Br)cc3F)c(C(=O)NOCCO)cc21` [Binimetinib], the pIC50 at MEK1 and at MEK2 was 7.9 each time. In the case of `Nc1ccc(/C=C/C(=O)NCc2cc3cc(-c4ccc(C(=O)N5CCC(F)(F)CC5)cc4)cc(-c4ccc(F)cc4)c3o2)cn1` [KPT-9274], the Molt-4 xenografts entry in [3] is “induces shrinkage”. On to `CO[C@H]1C[C@@H]2CC[C@@H](C)[C@@](O)(O2)C(=O)C(=O)N2CCCC[C@H]2C(=O)O[C@H]([C@H](C)C[C@@H]2CC[C@@H](O)[C@H](OC)C2)CC(=O)[C@H](C)/C=C(\C)[C@@H](O)[C@@H](OC)C(=O)[C@H](C)C[C@H](C)/C=C/C=C/C=C/1C` [Sirolimus], for which the “MERS-COV infection of Huh7 cells” value with MERS-COV is given as “inhibits MERS-COV infection”. Regarding `CC(=O)NCc1ccc(-n2c(-c3cccnc3N)nc3cccnc32)cc1` [8d], on AKT1, the IC50 was 0.81 µM.

Take `Nc1ncccc1-c1nc2cc(-c3cccnc3)cnc2n1-c1ccc(CNC(=O)c2cccc(F)c2)cc1` [12g]: the IC50 in the data set with Akt was 0.4 µM. `CC(=O)Nc1cccc(-n2c(=O)n(C3CC3)c(=O)c3c(Nc4ccc(I)cc4F)n(C)c(=O)c(C)c32)c1` [Trametinib]: the “Absorption/distribution of an oral dose of trametinib tablet” value is reported as 72%. Take `Cc1cccc(N2N=C(C(C)(C)C)CC2c2ccc(O)cc2)c1` (centres unmarked) [1k]: the “% … 5 μM (NF…, U… cells)” value with NF- B Pathway is 71.7%. At Recombinant PKC, the “% … 62.5 μM (cell…)” value is recorded as 91.7%. On to `Cc1ccc(N2N=C(C(C)(C)C)CC2c2ccc(O)cc2)cc1` (centres unmarked) [1e], for which, in the data set on NF- B Pathway, the “% … 5 μM (NF…, U… cells)” value is 62.9%.

Take `Nc1ncccc1-c1nc2cccnc2n1-c1ccc(CNCc2ccccc2)cc1` [8h]: the IC50 at AKT1 is 0.26 µM. For the molecule Skepinone-B, the residence times on p38α MAPK was 150 s. Consider `CC(C)(C)C1=NN(c2ccc(Br)cc2)C(c2ccc(O)cc2)C1` (centres unmarked) [1c], for which the “% … 62.5 μM (cell…)” value at Recombinant PKC was 93.2%.

Consider `CC(C)(C)C1=NN(c2ccc(C(F)(F)F)cc2)C(c2ccc(O)cc2)C1` (centres unmarked) [1d], for which, on Recombinant PKC, the “% … 62.5 μM (cell…)” value is 94.2%. As to `CC(C)(C)C1=NN(c2ccc(Cl)cc2)C(c2ccc(O)cc2)C1` (centres unmarked) [1a], the “% … 5 μM (NF…, U… cells)” value in the data set on NF- B Pathway is 75.1%.

For `O=C(O)c1cc(-c2cccc(C(F)(F)F)c2)nc2ccccc12` [compound 34], the half-maximal inhibitory concentration (IC50) is 0.00033 µM with C26 and 26.5 µM at Aurora A. Also, the “Sol (pH 6.5)” value in data set [4] is recorded as 190 μg/mL. Further, on Aurora A (read-out: Calculated K…), the Ki was 507 µM. In the case of `Cc1ccc(N2N=C(C(C)(C)C)CC2c2ccc(O)cc2)c(C)c1` (centres unmarked) [1p], in the data set on NF- B Pathway, the “% … 5 μM (NF…, U… cells)” value is recorded as 41.5%. Besides, on Recombinant PKC, the “% … 62.5 μM (cell…)” value was 59.9%. On to `O=C(Nc1nccs1)C(c1cc(F)ccc1O)N1Cc2ccccc2C1=O` (centres unmarked) [EAI045], for which the “inhibition of any other kinases in screening panels” value in the data set on other kinases was not above 20%.

For the molecule `NCc1ccc(-n2c(-c3cccnc3)nc3cccnc32)cc1` [5b], on AKT1, the IC50 is 8.8 µM.

As to `CC(C)(C)C1=NN(c2cccc(C(F)(F)F)c2)C(c2ccc(O)cc2)C1` (centres unmarked) [1j], the “% … 62.5 μM (cell…)” value on Recombinant PKC was 96.1%.

For the molecule `O=C(O)/C=C(/CCc1ccc(Cl)cc1Cl)c1ccccc1` [8Z], the “…H…” value at PDK1 [1] (the 35th table c6) is -2.08 kcal/mol. Further, on PDK1 [1], the “T…” value was 4.93 kcal/mol and the “…G” value is -7.07 kcal/mol. In addition, the “…H…” value at PDK1 [1] (the 35th table c9) is on record as 29.5%. Also, the EC50 on PDK1 [2] is 4.7 µM. As to `CC(C)(C)C1=NN(c2ccc(Cl)cc2Cl)C(c2ccc(O)cc2)C1` (centres unmarked) [1n], on Recombinant PKC, the “% … 62.5 μM (cell…)” value is listed as 71.0%. For the molecule `CC(C)(C)C1=NN(c2ccc(C(=O)O)cc2)C(c2ccc(O)cc2)C1` (centres unmarked) [1g], the “% … 5 μM (NF…, U… cells)” value in the data set on NF- B Pathway is 40.7%. Regarding `O=C1NC(=O)[C@@H](c2cn3c4c(cccc24)CCC3)[C@@H]1c1c[nH]c2ccccc12` [tivantinib], the “growth of carcinoma xenografts” value in data set [5] is “inhibition of growth”. Take `Cc1ccc2nc(NCCN)c3ncc(C)n3c2c1` [BMS-345541]: the “NF-κB dependent transcription in mice” value in data set [6] is listed as “block NF-κB dependent transcription”. Regarding `Nc1ncccc1-c1nc2cc(C3CCCC3)cnc2n1-c1ccc(CNC(=O)c2ccccc2)cc1` [12d], the IC50 with Akt is more than 100 µM. The Kd is the concentration at which binding is half-saturated. In the case of `O=S(=O)(Nc1nc2ccc(Cl)cc2s1)c1cc2ccccc2s1` [RS2], the Kd at PDK1 [7] is 9 µM.

In the case of `O=C(O)/C=C(/CCc1ccc2ccccc2c1)c1ccccc1` [12Z], at PDK1 [1], the “T…” value is listed as 1.96 kcal/mol and the “…G” value is -6.87 kcal/mol. Also, the “…H…” value on PDK1 [1] (the 35th table c9) was 58.3%. Also, the EC50 on PDK1 [2] is 8 µM.
